Data: ChEMBL document CHEMBL1201862, “PubChem BioAssay data set” (2004)
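These data come from cells grown in 96-well plates and exposed to compound for 48 hours at five concentrations. At the GI50, growth is halved.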 The source made the active and inactive calls. No stated cut-off is given here; in the data, active = GI50 up to about 1.1 µM and inactive = higher.

What was measured:
Test in all cases: NCI-60 cell line screen, 48 h
[1] = test system: SF-295
[2] = test system: NCI-H522
[3] = test system: ACHN
[4] = test system: T47D
[5] = test system: IGROV-1
[6] = test system: COLO 205
[7] = test system: MDA-N
[8] = test system: UACC-62
[9] = test system: MOLT-4
[10] = test system: SNB-75
[11] = test system: SK-MEL-28
[12] = test system: SK-OV-3
[13] = test system: MCF7
[14] = test system: SF-268
[15] = test system: RPMI-8226
[16] = test system: DU-145
[17] = test system: Hs-578T
[18] = test system: K562
[19] = test system: HL-60
[20] = test system: RXF 393
[21] = test system: SN12C
[22] = test system: SW-620
[23] = test system: OVCAR-3
[24] = test system: U-251
[25] = test system: HCC 2998
[26] = test system: HCT-116
[27] = test system: UO-31
[28] = test system: OVCAR-4
[29] = test system: UACC-257
[30] = test system: A498
[31] = test system: PC-3
[32] = test system: BT-549
[33] = test system: NCI/ADR-RES
[34] = test system: HOP-92
[35] = test system: HOP-62
[36] = test system: CAKI-1
[37] = test system: OVCAR-5
[38] = test system: HT-29
[39] = test system: KM12
[40] = test system: SK-MEL-2
[41] = test system: MDA-MB-435
[42] = test system: NCI-H226
[43] = test system: A549
[44] = test system: CCRF-CEM
[45] = test system: HCT-15
[46] = test system: SR
[47] = test system: OVCAR-8
[48] = test system: NCI-H460
[49] = test system: NCI-H23
[50] = test system: SF-539
[51] = test system: Malme-3M
[52] = test system: EKVX
[53] = test system: 786-0
[54] = test system: LOX IMVI
[55] = test system: MDA-MB-231
[56] = test system: TK-10
[57] = test system: SK-MEL-5
[58] = test system: M14
[59] = test system: SNB-19

## O=[N+]([O-])c1cccnc1NCC1(CO)CC(Cc2ccccc2)C1 (stereo unspecified)
[1]
  GI50: > 100 µM (inactive)
[2]
  GI50: > 100 µM (inactive)
[3]
  GI50: > 100 µM (inactive)
[4]
  GI50: > 100 µM (inactive)
[5]
  GI50: > 100 µM (inactive)
[6]
  GI50: > 100 µM (inactive)
[7]
  GI50: > 100 µM (inactive)
[8]
  GI50: > 100 µM (inactive)
[9]
  GI50: > 100 µM (inactive)
[10]
  GI50: > 100 µM (inactive)
[11]
  GI50: > 100 µM (inactive)
[12]
  GI50: > 100 µM (inactive)
[13]
  GI50: > 100 µM (inactive)
[14]
  GI50: > 100 µM (inactive)
[15]
  GI50: 99.8 µM (inactive)
[16]
  GI50: > 100 µM (inactive)
[17]
  GI50: > 100 µM (inactive)
[18]
  GI50: > 100 µM (inactive)
[19]
  GI50: > 100 µM (inactive)
[20]
  GI50: > 100 µM (inactive)
[21]
  GI50: > 100 µM (inactive)
[22]
  GI50: > 100 µM (inactive)
[23]
  GI50: > 100 µM (inactive)
[24]
  GI50: > 100 µM (inactive)
[25]
  GI50: > 100 µM (inactive)
[26]
  GI50: > 100 µM (inactive)
[27]
  GI50: 74 µM (inactive)
[28]
  GI50: > 100 µM (inactive)
[29]
  GI50: > 100 µM (inactive)
[30]
  GI50: > 100 µM (inactive)
[31]
  GI50: > 100 µM (inactive)
[32]
  GI50: > 100 µM (inactive)
[33]
  GI50: > 100 µM (inactive)
[34]
  GI50: 11.1 µM (inactive)
[35]
  GI50: > 100 µM (inactive)
[36]
  GI50: > 100 µM (inactive)
[37]
  GI50: > 100 µM (inactive)
[38]
  GI50: > 100 µM (inactive)
[39]
  GI50: > 100 µM (inactive)
[40]
  GI50: > 100 µM (inactive)
[41]
  GI50: > 100 µM (inactive)
[42]
  GI50: 80.4 µM (inactive)
[43]
  GI50: > 100 µM (inactive)
[44]
  GI50: > 100 µM (inactive)
[45]
  GI50: > 100 µM
[46]
  GI50: > 100 µM (inactive)
[47]
  GI50: > 100 µM (inactive)
[48]
  GI50: > 100 µM (inactive)
[49]
  GI50: > 100 µM (inactive)
[50]
  GI50: > 100 µM (inactive)
[51]
  GI50: > 100 µM (inactive)
[52]
  GI50: 77.6 µM (inactive)
[53]
  GI50: > 100 µM (inactive)
[54]
  GI50: > 100 µM (inactive)
[55]
  GI50: > 100 µM (inactive)
[56]
  GI50: > 100 µM (inactive)
[57]
  GI50: > 100 µM (inactive)

## COc1ccc(C(OCC2OC(n3cc(C)c(=O)[nH]c3=O)CC2n2cc(Cn3cc(F)c(=O)[nH]c3=O)nn2)(c2ccccc2)c2ccccc2)cc1 (stereo unspecified)
[1]
  GI50: 3.26 µM (inactive)
[2]
  GI50: 3.77 µM (inactive)
[3]
  GI50: 10.8 µM (inactive)
[4]
  GI50: 5.71 µM (inactive)
[5]
  GI50: 7.96 µM (inactive)
[6]
  GI50: 4.97 µM (inactive)
[7]
  GI50: 1.54 µM (inactive)
[8]
  GI50: 11 µM (inactive)
[9]
  GI50: 4.54 µM (inactive)
[10]
  GI50: 12.6 µM (inactive)
[11]
  GI50: 11.3 µM (inactive)
[12]
  GI50: 5.3 µM (inactive)
[13]
  GI50: 3.54 µM (inactive)
[14]
  GI50: 5.06 µM (inactive)
[15]
  GI50: 3.04 µM (inactive)
[16]
  GI50: 6.44 µM (inactive)
[17]
  GI50: 6.97 µM (inactive)
[19]
  GI50: 2.63 µM (inactive)
[20]
  GI50: 10.6 µM (inactive)
[58]
  GI50: 4.58 µM (inactive)
[21]
  GI50: 5.71 µM (inactive)
[22]
  GI50: 3.72 µM (inactive)
[23]
  GI50: 5.26 µM (inactive)
[24]
  GI50: 3.78 µM (inactive)
[25]
  GI50: 3.31 µM (inactive)
[26]
  GI50: 3.38 µM (inactive)
[27]
  GI50: 9.73 µM (inactive)
[28]
  GI50: 16.4 µM (inactive)
[29]
  GI50: 11.5 µM (inactive)
[30]
  GI50: 10.1 µM (inactive)
[31]
  GI50: 4.33 µM (inactive)
[32]
  GI50: 11.1 µM (inactive)
[33]
  GI50: 31.6 µM (inactive)
[34]
  GI50: 2.62 µM (inactive)
[35]
  GI50: 4.1 µM (inactive)
[36]
  GI50: 8.38 µM (inactive)
[37]
  GI50: 10.4 µM (inactive)
[38]
  GI50: 6.28 µM (inactive)
[39]
  GI50: 4.25 µM (inactive)
[40]
  GI50: 6.31 µM (inactive)
[41]
  GI50: 1.75 µM (inactive)
[42]
  GI50: 4.42 µM (inactive)
[43]
  GI50: 4.1 µM (inactive)
[44]
  GI50: 2.56 µM (inactive)
[45]
  GI50: 4.5 µM
[46]
  GI50: 2.51 µM (inactive)
[47]
  GI50: 9.57 µM (inactive)
[49]
  GI50: 8.28 µM (inactive)
[50]
  GI50: 4.23 µM (inactive)
[51]
  GI50: 9.04 µM (inactive)
[52]
  GI50: 5.65 µM (inactive)
[53]
  GI50: 3.67 µM (inactive)
[54]
  GI50: 4.38 µM (inactive)
[59]
  GI50: 6.07 µM (inactive)
[55]
  GI50: 2.69 µM (inactive)
[56]
  GI50: 13.6 µM (inactive)
[57]
  GI50: 7.82 µM (inactive)

## CCC1NC(=O)C1NC(=O)OC (stereo unspecified)
[1]
  GI50: > 100 µM (inactive)
[2]
  GI50: > 100 µM (inactive)
[3]
  GI50: > 100 µM (inactive)
[4]
  GI50: > 100 µM (inactive)
[5]
  GI50: > 100 µM (inactive)
[6]
  GI50: > 100 µM (inactive)
[7]
  GI50: > 100 µM (inactive)
[8]
  GI50: > 100 µM (inactive)
[9]
  GI50: > 100 µM (inactive)
[10]
  GI50: > 100 µM (inactive)
[11]
  GI50: > 100 µM (inactive)
[12]
  GI50: > 100 µM (inactive)
[13]
  GI50: > 100 µM (inactive)
[15]
  GI50: > 100 µM (inactive)
[16]
  GI50: > 100 µM (inactive)
[17]
  GI50: > 100 µM (inactive)
[18]
  GI50: > 100 µM (inactive)
[19]
  GI50: > 100 µM (inactive)
[20]
  GI50: > 100 µM (inactive)
[58]
  GI50: > 100 µM (inactive)
[21]
  GI50: > 100 µM (inactive)
[22]
  GI50: > 100 µM (inactive)
[23]
  GI50: > 100 µM (inactive)
[24]
  GI50: > 100 µM (inactive)
[25]
  GI50: > 100 µM (inactive)
[26]
  GI50: > 100 µM (inactive)
[27]
  GI50: > 100 µM (inactive)
[28]
  GI50: > 100 µM (inactive)
[29]
  GI50: > 100 µM (inactive)
[30]
  GI50: > 100 µM (inactive)
[31]
  GI50: > 100 µM (inactive)
[32]
  GI50: > 100 µM (inactive)
[33]
  GI50: > 100 µM (inactive)
[34]
  GI50: > 100 µM (inactive)
[35]
  GI50: > 100 µM (inactive)
[36]
  GI50: > 100 µM (inactive)
[37]
  GI50: > 100 µM (inactive)
[38]
  GI50: > 100 µM (inactive)
[39]
  GI50: > 100 µM (inactive)
[40]
  GI50: > 100 µM (inactive)
[41]
  GI50: > 100 µM (inactive)
[42]
  GI50: > 100 µM (inactive)
[44]
  GI50: > 100 µM (inactive)
[45]
  GI50: > 100 µM
[46]
  GI50: > 100 µM (inactive)
[47]
  GI50: > 100 µM (inactive)
[48]
  GI50: > 100 µM (inactive)
[49]
  GI50: > 100 µM (inactive)
[50]
  GI50: > 100 µM (inactive)
[51]
  GI50: > 100 µM (inactive)
[52]
  GI50: > 100 µM (inactive)
[53]
  GI50: > 100 µM (inactive)
[54]
  GI50: > 100 µM (inactive)
[59]
  GI50: > 100 µM (inactive)
[55]
  GI50: > 100 µM (inactive)
[56]
  GI50: > 100 µM (inactive)
[57]
  GI50: > 100 µM (inactive)
